pIC50: −log10 of the molar value. Values after ≈ are worked out from the molar mass of the structure shown. Each block holds one compound with its values, some of them ahead of it.
Assays:
Staphylococcus aureus [1] = test: Potentiation of gentamicin-induced antibiofilm activity against Staphylococcus aureus assessed as disruption of preformed biofilm by measuring fold increase in gentamicin activity; assay type: functional
Staphylococcus aureus [2] = test: Potentiation of vancomycin-induced antibiofilm activity against Staphylococcus aureus assessed as disruption of preformed biofilm by measuring fold increase in vancomycin activity; assay type: functional
MDA-MB-231 [3] = test: Antitumor activity against human MDA-MB-231 cells xenografted in triple-negative breast cancer xenograft model assessed as tumor growth inhibition at 15 mg/kg relative to control; assay type: functional; conditions: read-out: TGI
MDA-MB-231 [4] = test: Antitumor activity against human MDA-MB-231 cells xenografted in triple-negative breast cancer xenograft model assessed as tumor growth inhibition at 30 mg/kg relative to control; assay type: functional; conditions: read-out: TGI
Staphylococcus sp. = test: Antibacterial activity against Staphylococcus species; assay type: functional
Acinetobacter = test: Antibacterial activity against Acinetobacter; assay type: functional
B16 = test: Cytotoxicity against mouse B16 cells; assay type: functional, cell-based
HCT-116 = test: Antiproliferative activity against human HCT-116 cells

SMILES: CC(=O)[C@H](C)C[C@@H](C)C[C@H](C)C(=O)C1=C(O)/C(=C/c2ccccc2)NC1=O
fold change (FC) (Staphylococcus aureus [1]): 115
fold change (FC) (Staphylococcus aureus [2]): 31

SMILES: CC(C)C[C@@H](CO)N1CCc2c(oc3c2C(=O)C(=O)c2ccccc2-3)C1
inhibition in vivo at 15 mg/kg (MDA-MB-231 [3]): 42.2%
inhibition in vivo at 30 mg/kg (MDA-MB-231 [4]): 60.4%

MIC (Staphylococcus sp.): 0.06 µg/mL (≈ 0.0757 µM)
MIC (Acinetobacter): 0.06 µg/mL (≈ 0.0757 µM)
SMILES: C#CC[C@H](NC(=O)c1ccc(NC(=O)c2ccc(C#N)cc2)cc1)C(=O)Nc1ccc(C(=O)Nc2ccc(C(=O)Nc3ccc(C(=O)O)cc3)c(O)c2OC(C)C)cc1

SMILES: COC[C@@H](OC)C(=O)O[C@H](CC[C@H](C)[C@H](C[C@@H]1OC(=O)C[C@@H](O)C/C=C/C(=O)[C@H](C)[C@H](OC)c2coc(n2)-c2coc(n2)-c2coc(n2)/C=C\C[C@H](OC)[C@H]1C)OC)[C@H](C)[C@H](OC(C)=O)[C@H](C)/C=C/N(C)C=O
pIC50 (B16): 9.30

SMILES: COc1ccc2cc(NC(=O)C3=NO[C@H]4[C@H](O)C=C[C@@H](Cl)[C@@]4(O)C3)c(=O)oc2c1OC [TRICHODERMAMIDE B]
pIC50 (HCT-116): 6.92

— ChEMBL document CHEMBL6083295, “Natural Products Driven Medicinal Chemistry” (J Med Chem, 2024)
